Measurements: ChEMBL document CHEMBL1828522, “Synthesis and preliminary evaluation of a modified estradiol-core bearing a fused γ-lactone as non-estrogenic inhibitor of 17β-hydroxysteroid dehydrogenase type 1” (Bioorg Med Chem Lett, 2011)
Active and inactive are the calls of the source. The rule behind the calls is not given here.

How the values were obtained:
T47D [1] = test: Estrogenic activity in human T47D cells expressing estrogen receptor assessed as stimulation cell growth at 0.1 uM after 7 days relative to control
[2] = target: T1, 17-beta-hydroxysteroid dehydrogenase type 1 (Homo sapiens, UniProt P14061); test: Inhibition of 17beta-HSD1 in human T47D cells expressing estrogen receptor assessed as conversion of [14C]-E1 to [14C]-E2 after 24 hrs; format: cell-based
T1 sequence (P14061 whole entry): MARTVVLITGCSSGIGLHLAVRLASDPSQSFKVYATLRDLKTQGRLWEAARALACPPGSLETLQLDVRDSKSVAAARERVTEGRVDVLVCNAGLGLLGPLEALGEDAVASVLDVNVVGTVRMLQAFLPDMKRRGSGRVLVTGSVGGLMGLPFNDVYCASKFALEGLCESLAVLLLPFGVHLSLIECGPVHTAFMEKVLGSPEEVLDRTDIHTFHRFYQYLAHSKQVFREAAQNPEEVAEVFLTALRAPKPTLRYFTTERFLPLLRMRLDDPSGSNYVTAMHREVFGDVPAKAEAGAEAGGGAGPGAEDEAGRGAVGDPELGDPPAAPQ

[3] = target: T2, 17-beta-hydroxysteroid dehydrogenase type 1 (Homo sapiens) (UniProt P14061); test: Inhibition of 17beta-HSD1 in human T47D cells expressing estrogen receptor assessed as conversion of [14C]-E1 to [14C]-E2 at 0.3 uM after 24 hrs; format: cell-based
T2 sequence (whole entry): T1 sequence (P14061 whole entry)

T47D [4] = test: Estrogenic activity in human T47D cells expressing estrogen receptor assessed as stimulation cell growth at 1 uM after 7 days relative to control
[5] = target: T2, 17-beta-hydroxysteroid dehydrogenase type 1 (Homo sapiens); test: Inhibition of 17beta-HSD1 in human T47D cells expressing estrogen receptor assessed as conversion of [14C]-E1 to [14C]-E2 at 5 uM after 24 hrs; format: cell-based

SMILES	Activity (T47D [1])	IC50 [2] [µM]	inhibition [3] [%]	Activity (T47D [4])	inhibition [5] [%]
C[C@]12CC[C@@H]3c4ccc(O)cc4CC[C@H]3[C@@H]1C[C@@H]1[C@@H](Cc3cccc(C(N)=O)c3)C(=O)O[C@@H]12	inactive	1	20	inactive	75
C[C@]12CC[C@@H]3c4ccc(O)cc4CC[C@H]3[C@@H]1C[C@H](Cc1cccc(C(N)=O)c1)[C@@H]2O	48%		85	83%	90
